This note sets out measurements from patent US11667602B2, “Compounds and their use” (AstraZeneca AB, priority 2020, dated 2023).

This assay has as its target T1, human RXFP1 (Homo sapiens, UniProt Q9HBX9).
T1 sequence (Q9HBX9 1-757): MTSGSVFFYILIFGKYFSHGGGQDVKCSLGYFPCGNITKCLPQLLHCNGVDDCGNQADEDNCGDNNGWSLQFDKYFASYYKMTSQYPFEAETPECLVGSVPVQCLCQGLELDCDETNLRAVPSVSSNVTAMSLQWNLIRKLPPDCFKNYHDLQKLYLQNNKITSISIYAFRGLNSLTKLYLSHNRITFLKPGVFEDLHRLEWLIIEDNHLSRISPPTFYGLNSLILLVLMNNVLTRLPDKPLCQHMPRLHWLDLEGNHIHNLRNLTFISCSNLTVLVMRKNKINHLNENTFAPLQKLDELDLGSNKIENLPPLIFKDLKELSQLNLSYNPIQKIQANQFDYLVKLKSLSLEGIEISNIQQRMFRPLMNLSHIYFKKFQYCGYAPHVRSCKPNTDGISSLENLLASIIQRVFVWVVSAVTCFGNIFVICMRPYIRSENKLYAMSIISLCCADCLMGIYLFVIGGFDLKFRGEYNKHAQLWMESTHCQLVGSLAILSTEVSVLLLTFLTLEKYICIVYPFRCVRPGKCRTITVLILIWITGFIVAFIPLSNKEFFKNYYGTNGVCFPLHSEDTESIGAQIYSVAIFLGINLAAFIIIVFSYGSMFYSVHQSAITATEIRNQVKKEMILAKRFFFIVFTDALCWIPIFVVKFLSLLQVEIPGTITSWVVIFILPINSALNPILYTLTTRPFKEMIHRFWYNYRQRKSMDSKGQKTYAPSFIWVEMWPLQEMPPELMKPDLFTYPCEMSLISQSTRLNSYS
Put plainly: RXFP1 Hu cAMP (Test A). It counts as cell-based. More on the design: expressed in transfected cells; host or cells: Jump-In T-REx CHO-K1 cells (ThermoFisher), induced with 10 ng/ml doxycycline for 24 h. The procedure, abridged:
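Doxycycline-induced (10 ng/ml, 24 h) CHO-K1 cells stably expressing human RXFP1; cAMP read by competitive HTRF after 2 h at room temperature, with 0.5 mM IBMX final.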

The mark [1] stands for this setting: RXFP1 Hu cAMP, read-out: Test A EC50.

Where two headings read alike, the source gives them in different places.

Take `COc1cc(F)c(O[C@H]2CC[C@@](CO)(C(=O)O)CC2)cc1C(=O)N[C@@H]1[C@@H]2CC[C@@H](C2)[C@@H]1C(=O)Nc1cccc(S(=O)(=O)C(F)(F)F)c1` (racemic) [Example 366]: the “Test A Sinf” value (RXFP1 Hu cAMP) turned out to be 103%. Also, the EC50 under setting [1] was found to be 2.2 nM.
Take `COc1cc(F)c(O[C@H]2CC[C@@](C)(C(=O)O)CC2)cc1C(=O)NC1CCC1C(=O)NCC(C)(C)C` (single isomer, unassigned) [Example 568, (1R,4s)-4-(2-Fluoro-4-methoxy-5-(((1S*,2R*)-2-(neopentylcarbamoyl)cyclobutyl)carbamoyl)phenoxy)-1-methylcyclohexane-1-carboxylic acid]: the EC50 under setting [1] is > 40000 nM.
As to `COc1cc(F)c(-c2ccc(C(N)(CO)CO)cc2)cc1C(=O)N[C@@H]1[C@H]2CC[C@H](C2)[C@@H]1C(=O)Nc1cccc(S(=O)(=O)C(F)(F)F)c1` [Example 265, (1R,2S,3R,4S)-3-(4′-(2-Amino-1,3-dihydroxypropan-2-yl)-6-fluoro-4-methoxy-[1,1′-biphenyl]-3-carboxamido)-N-(3-((trifluoromethyl)sulfonyl)phenyl)bicyclo[2.2.1]heptane-2-carboxamide], the “Test A Sinf” value (RXFP1 Hu cAMP) is on record as 78%.
Consider `COc1cc(F)c(Cn2nccc2C(=O)O)cc1C(=O)N[C@@H]1[C@H]2CC[C@H](C2)[C@@H]1C(=O)Nc1cccc(S(=O)(=O)C(F)(F)F)c1` [Example 221, 1-(2-Fluoro-4-methoxy-5-(((1S,2R,3S,4R)-3-((3-((trifluoromethyl)sulfonyl)phenyl)carbamoyl)bicyclo[2.2.1]heptan-2-yl)carbamoyl)benzyl)-1H-pyrazole-5-carboxylic acid], for which the EC50 under setting [1] is > 40000 nM.
Still for that read-out and setting: next, `COc1cc(F)c(O[C@H]2CC[C@@](C)(C(=O)O)CC2)cc1C(=O)NC1COCC1C(=O)NCC(C)(C)C` (single isomer, unassigned) [Example 566, (1R,4s)-4-(2-Fluoro-4-methoxy-5-(((3S*,4R*)-4-(neopentylcarbamoyl)tetrahydrofuran-3-yl)carbamoyl)phenoxy)-1-methylcyclohexane-1-carboxylic acid]: > 40000 nM.
As for `COc1cc(F)c(OCc2ccc(C(=O)O)cc2)cc1C(=O)N[C@H]1[C@@H](C(=O)Nc2cccc(S(=O)(=O)C(F)(F)F)c2)[C@@H]2C=C[C@H]1C2` (racemic) [Example 450], for the setting “RXFP1 Hu cAMP”, the “Test A Sinf” value came out at 107%. Also, the EC50 under setting [1] was determined as 610 nM.
Take `COc1cc(F)c(OCCCC(=O)O)cc1C(=O)N[C@H]1[C@@H](C(=O)Nc2cccc(S(=O)(=O)C(F)(F)F)c2)[C@@H]2C=C[C@H]1C2` (racemic) [Example 456]: where the note is “RXFP1 Hu cAMP”, the “Test A Sinf” value is listed as 129%.
For the compound `COc1cc(F)c(O[C@H]2CC[C@@H](C(=O)OC)CC2)cc1C(=O)N[C@@H]1C[C@H](O)C[C@@H]1C(=O)Nc1cccc(S(=O)(=O)C(F)(F)F)c1` (racemic) [Example 496], under setting [1], the EC50 was > 40000 nM.
`COc1cc(C#N)c(O[C@H]2CC[C@@](C)(C(=O)O)CC2)cc1C(=O)N[C@@H]1[C@H]2CC[C@H](C2)[C@@H]1C(=O)N[C@H](C)C1CCCCC1` [Example 120]: where the note is “RXFP1 Hu cAMP”, the “Test A Sinf” value is listed as 95%.
`COc1cc(F)c(O[C@H]2CC[C@@](CO)(C(=O)O)CC2)cc1C(=O)NC1C2CCC(C2)C1C(=O)Nc1cccc(S(=O)(=O)C(F)(F)F)c1` (single isomer, unassigned) [Example 584, (1R,4s)-4-(2-Fluoro-4-methoxy-5-(((1S*,2S*,3R*,4R*)-3-((3-((trifluoromethyl)sulfonyl)phenyl)carbamoyl)bicyclo[2.2.1]heptan-2-yl)carbamoyl)phenoxy)-1-(hydroxymethyl)cyclohexane-1-carboxylic acid]: where the note is “RXFP1 Hu cAMP”, the “Test A Sinf” value is 106%. The EC50 under setting [1] turned out to be 0.7 nM.
For `COc1cc(F)c(OCc2ccccc2C(=O)O)cc1C(=O)N[C@H]1[C@@H](C(=O)Nc2cccc(S(=O)(=O)C(F)(F)F)c2)[C@@H]2C=C[C@H]1C2` (racemic) [Example 448, rac-2-((2-Fluoro-4-methoxy-5-(((1R,2R,3S,4S)-3-((3-((trifluoromethyl)sulfonyl)phenyl)carbamoyl)bicyclo[2.2.1]hept-5-en-2-yl)carbamoyl)phenoxy)methyl)benzoic acid], in that order: 77% and 2600 nM.
In the case of `COc1cc(C(F)(F)F)c(O[C@H]2CC[C@@](C)(C(=O)O)CC2)cc1C(=O)N[C@@H]1[C@H]2CC[C@H](C2)[C@@H]1C(=O)NCC1(C)CCC1` [Example 372], the “Test A Sinf” value (RXFP1 Hu cAMP) was 96%. The same compound registered an EC50 (Test A EC50, RXFP1 Hu cAMP) of 21 nM.
Take `COc1cc(F)c(O[C@H]2CC[C@@](C)(C(=O)O)CC2)cc1C(=O)N[C@H]1[C@@H](C(=O)Nc2cccc(S(=O)(=O)C(F)(F)F)c2)CC[C@H]1OC` (racemic) [Example 397, (1R,4s)-4-(2-Fluoro-4-methoxy-5-(((1SR,2RS,5SR)-2-methoxy-5-((3-((trifluoromethyl)sulfonyl)phenyl)carbamoyl)cyclopentyl)carbamoyl)phenoxy)-1-methylcyclohexane-1-carboxylic acid]: the EC50 under setting [1] was > 40000 nM.
Consider `COc1cc(F)c(O[C@H]2CC[C@@](C)(C(=O)O)CC2)cc1C(=O)NC1CCC1C(=O)Nc1ccc(F)c(S(F)(F)(F)(F)F)c1` (single isomer, unassigned) [Example 570, (1R,4s)-4-(2-Fluoro-5-(((1S*,2R*)-2-((4-fluoro-3-(pentafluoro-λ6-sulfaneyl)phenyl)carbamoyl)cyclobutyl)carbamoyl)-4-methoxyphenoxy)-1-methylcyclohexane-1-carboxylic acid], for which the “Test A Sinf” value (RXFP1 Hu cAMP) stood at 128%. Besides, the EC50 under setting [1] is 9200 nM.
For `COc1cc(F)c(O[C@H]2CC[C@@](C)(C(=O)O)CC2)cc1C(=O)N[C@@H]1[C@H]2CC[C@H](C2)[C@@H]1C(=O)NC(C)(C)C` [Example 602] the same measures were 100% and 250 nM.
For `COC[C@]1(C(=O)O)CC[C@@H](Oc2cc(C(=O)N[C@@H]3[C@@H]4CC[C@@H](C4)[C@@H]3C(=O)Nc3cccc(S(=O)(=O)C(F)(F)F)c3)c(OC)cc2F)CC1` [Example 479], in that order: 104% and 7.8 nM.
On to `COc1cc(F)c(-c2ccc([C@@H]3C[C@H]3C(=O)O)nc2)cc1C(=O)N[C@@H]1[C@H]2CC[C@H](C2)[C@@H]1C(=O)Nc1cccc(S(=O)(=O)C(F)(F)F)c1` (single isomer, unassigned) [Example 262, (1R*,2R*)-2-(5-(2-Fluoro-4-methoxy-5-(((1S,2R,3S,4R)-3-((3-((trifluoromethyl)sulfonyl)phenyl)carbamoyl)bicyclo[2.2.1]heptan-2-yl)carbamoyl)phenyl)pyridin-2-yl)cyclopropane-1-carboxylic acid], for which, under “RXFP1 Hu cAMP”, the “Test A Sinf” value was determined as 95%. Moreover, under setting [1], the concentration giving a half-maximal response (EC50) stood at 26 nM.
As to `COc1cc(F)c(O[C@H]2CC[C@@H](C(=O)O)CC2)cc1C(=O)N[C@@H]1[C@@H]2C[C@@H]([C@@H](O)[C@H]2O)[C@@H]1C(=O)Nc1cccc(S(=O)(=O)C(F)(F)F)c1` [Example 494], the “Test A Sinf” value (RXFP1 Hu cAMP) is 90%. Further, under setting [1], the EC50 amounted to 6900 nM.
For `COc1cc(F)c(O[C@H]2CC[C@@](C)(C(=O)O)CC2)cc1C(=O)N[C@@H]1[C@H]2CC[C@H](C2)[C@@H]1C(=O)NCC1CC(F)(F)C1` [Example 620], in that order: 93% and 690 nM.
On to `COc1cc(F)c(O[C@H]2CC[C@@](CO)(C(=O)O)CC2)cc1C(=O)NC1C2CCC(O2)C1C(=O)NCC1(C)CCC1` (single isomer, unassigned) [Example 532, (1R,4s)-4-(2-Fluoro-4-methoxy-5-(((1S*,2S*,3R*,4R*)-3-(((1-methylcyclobutyl)methyl)carbamoyl)-7-oxabicyclo[2.2.1]heptan-2-yl)carbamoyl)phenoxy)-1-(hydroxymethyl)cyclohexane-1-carboxylic acid], for which, under “RXFP1 Hu cAMP”, the “Test A Sinf” value was 104%. The EC50 under setting [1] is 140 nM.
Consider `COc1cc(F)c(O[C@H]2CC[C@@](C)(C(=O)O)CC2)cc1C(=O)N[C@@H]1[C@H]2CC[C@H](C2)[C@@H]1C(=O)NCC(C)(C)O` [Example 611], for which the EC50 under setting [1] was > 40000 nM.
For the compound `COc1cc(F)c(O[C@H]2CC[C@@](C)(C(=O)O)CC2)cc1C(=O)NC1C(O)CCC1C(=O)Nc1cccc(S(=O)(=O)C(F)(F)F)c1` (single isomer, unassigned) [Example 528, (1R,4s)-4-(2-Fluoro-5-(((1S*,2S*,5S*)-2-hydroxy-5-((3-((trifluoromethyl)sulfonyl)phenyl)carbamoyl)cyclopentyl)carbamoyl)-4-methoxyphenoxy)-1-methylcyclohexane-1-carboxylic acid], the EC50 under setting [1] was > 40000 nM.
